Measured values reported in publication PMC12203428, “Discovery of Clonixeril as a Sub-Femtomolar Modulator of the Human STING Receptor” (ACS Central Science, 2025).
Each block holds one molecule with its values, some of them ahead of it.

What was measured:
[1] = test system: IFN-β expression in HEK293 cells; assay: HEK293 real-time qPCR for IFN-β; settings: 4 μM 2′,3′-cGAMP 3 h, positive control
Procedure: IFN-β expression levels were measured using real-time qPCR.
HEK293 cells were seeded at 700,000 cells per 60 mm plate confluency and treated 36 h later.

[2] = target: T1, hSTING CTD (STING R232 variant) (Homo sapiens, UniProt Q86WV6, H232R); assay: Microscale thermophoresis; assay type: binding; settings: for Activity in MST assay: competition with 2′,3′-cGAMP
T1 construct: 6X-His tagged hSTING^WT, R232 variant, CTD protein was purchased; purchased Invivogen (USA) or Cayman Chemicals (USA)
Procedure: Small molecule affinities at subpicomolar concentrations are typically difficult to determine by MST due to the inability of the detector to measure differential movement of proteins when largely disproportionate ratios of protein to ligand are involved. […] Generally, an IC50 correlates well with a K D when a small molecule competes for binding with a natural substrate for a target protein.
The resulting mixture was centrifuged at 12,000 x RPM 10 min prior to use. […] The samples were run again at 30- and 45 min. Detection of the protein was performed using the blue detection channel with excitation power set to 100% and MST set to high allowing 3 s prior to MST on to check for initial fluorescence differences, 35 s for thermophoresis, and 3 s for regeneration after MST off. Analysis was performed using M.O. Affinity Analysis Software with difference between initial fluorescence measured in the first 5 s as compared with thermophoresis at 30 s at 16 different analyte concentrations ranging from 100 μM to 100 zM and exported into Graphpad Prism v.8 using a Log inhibitor versus response for parameter fit.

[3] = test system: p-IRF3 in HEK293S cells (hSTING pathway); assay: Phospho-IRF3 Western blot in HEK293S cells with diABZI3; assay type: cell-based, human; settings: 100 fM compound, 100 nM diABZI3, preliminary
Procedure: HEK293T cells transfected with hSTINGWT cells were seeded in a 6-well plate in DMEM
(supplemented with 10% heat-inactivated fetal bovine serum, 1X Corning Penicillin-Streptomycin
solution and 0.01mg/mL Blasticidin). Upon reaching ~80% confluence, cells were pretreated with
varying concentrations of CXL in FBS-free DMEM for 2 hours. This was followed by treatment
with diABZI3 (100nM) for 1 hour. The cells were scraped, harvested by centrifugation at 1000 x g
for 3 mins. The resulting pellet is resuspended in 1X PBS with 1X Halt protease & phosphatase
inhibitor and 1% NP-40. Cell lysis was performed by probe sonication. The cell lysate is further
denatured in 1X SDS loading buffer by boiling for 10 mins and separated by SDS-PAGE (4-20%
gel). The separated proteins were electrically transferred to a PVDF membranes separately,
which was probed with primary (α-pIRF3, α-IRF3 & α-STING) and secondary (goat anti-rabbit IR
dye 680 & goat anti-mouse IR dye 800CW) antibodies. The blots were visualized using a LICOR
Image Analyzer. All the experiments were performed at least in duplicate.

[4] = target: T2, SUMO-hSTING CTD (Homo sapiens, UniProt Q86WV6, H232R); assay: Dynamic light scattering of STING oligomerization; settings: 50 nM STING CTD; S-isomer up to 500 fM; reviewer's reading
Procedure: (B) DLS was performed for 2 h (n = 960 measurements) with 50 nM STING exposed to analytes. […] Blue blocks indicate size counts as a percentage to overall mass over selected mass ranges. […] Measurements were made using a Malvern Zetasizer Nano ZS set to 40 measurements at 1 s/measurement and 24 runs.

[5] = target: T3, His-hSTING CTD (Homo sapiens, UniProt Q86WV6, H232R); assay: Surface plasmon resonance; assay type: binding; settings: read-out: KD (SPR)
T3 construct: purchased Invivogen (USA) or Cayman Chemicals (USA)
Procedure: SPR was employed for binding measurements using the His-tagged hSTING^WT CDN domain. A GE Healthcare Biacore T200 was equipped with a Ni-NTA chip. […] The sensorgrams were analyzed using Biacore T200 Software 3.0 and steady state was measured at 4 s before injection stop, exported into Graphpad, and fit versus concentration using a one site specific binding model to calculate the apparent equilibrium dissociation constant (K D). Where appropriate, kinetics were measured using a 1:1 Langmuir binding model with R max set to local to obtain the association rate (K on), dissociation (K off)

[6] = target: STING CTD; parameters: method as in not given; settings: ref not given; read-out: KD previously reported (ITC); cited from earlier work
[7] = target: T2, SUMO-hSTING CTD; assay: Isothermal titration calorimetry; assay type: binding; parameters: human STING (amino acid 155–343) was synthesized and subcloned into pET28a vector; made in house; host or cells: E. coli BL21(DE3)
Source text: In order to further explore the interaction between CXL and hSTING CTD, we employed Isothermal calorimetry (ITC) to measure the heat evolved accompanying CXL’s effect on SUMO-hSTING^WT CTD. […] In Figure A, we show the ITC data we obtained. […]. […] In Figure B, we also find that the binding isotherm is far from steady state or equilibrium, and thus, we could not obtain reliable thermodynamic parameters. Nonetheless, a significant amount of heat was released in the process of CXL interacting with the hSTING CTD. On the other hand, we were most interested in ITC measurements taken at femtomolar concentrations, given the biophysical experiments and in cellulo studies already described. Initial experiments treating the hSTING CTD with femtomolar concentrations of CXL were unsuccessful, likely due to the insensitivity of the instrument. […]. MicroCal ITC200 instrument (Malvern Pananalytical) was used to assess STING and CXL interactions. Both recombinantly purified STING domains (residues 155–343) containing a SUMO tag and CXL were buffer-exchanged and made in the same buffer composition, respectively, to avoid buffer mismatch. The same buffer cocktail was used in all ITC experiments, containing 25 mM HEPES (pH, 7.4), 150 mM NaCl, 5% glycerol, 0.5 mM TCEP, and 5% DMSO. STING protein from −80 °C aliquots was spun down at 12,000 RPM for 5–10 min before each run to remove any aggregates, diluted into the ITC buffer above (either as 40 μM STING alone or as 40 μM STING plus 20 μM 2,3-cGAMP), and loaded into the cell. CXL at various concentrations for different experiments was loaded into the syringe (Hamilton). For the control and reference, an ITC buffer devoid of CXL was used. ITC experiments were conducted at 25 °C using an initial 0.4 μL injection and 19 subsequent injections of 2 μL each at 150 s intervals. Heat of dilution (differential power) of the 19 injections resulting from the binding event was fitted into the nonlinear least-squares equation incorporated in the MicroCal ITC200 analysis software. The K D and other thermodynamic parameters were derived from curve fitting using MicroCal software.

[8] = test system: STING; parameters: method as in Ergun et al.; settings: ref Ergun et al., cited from earlier work
[9] = target: the molecule itself; assay: dynamic light scattering; 50 nM STING with 50 nM 2′,3′-cGAMP and a titrated range of analyte (CXL, CXN, H-151), HBS-P pH 7.4, 2 h
[10] = 500 μM c-diGMP to 40 μM hSTING CTD

T2 sequence (Q86WV6 155-343 H232R): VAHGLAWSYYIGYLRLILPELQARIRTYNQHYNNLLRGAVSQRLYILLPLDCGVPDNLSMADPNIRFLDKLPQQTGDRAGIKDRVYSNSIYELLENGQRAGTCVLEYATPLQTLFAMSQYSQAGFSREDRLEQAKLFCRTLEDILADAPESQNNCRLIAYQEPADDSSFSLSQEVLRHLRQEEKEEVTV
T1 sequence (Q86WV6 153-340 H232R): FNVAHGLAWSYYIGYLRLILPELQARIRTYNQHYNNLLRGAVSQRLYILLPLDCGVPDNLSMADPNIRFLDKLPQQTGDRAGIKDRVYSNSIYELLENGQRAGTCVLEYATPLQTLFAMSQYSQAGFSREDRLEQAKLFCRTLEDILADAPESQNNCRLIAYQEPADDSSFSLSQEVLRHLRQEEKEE
T3 sequence (Q86WV6 153-340 H232R): as above

Molecule: Nc1nc2c(ncn2C2OC3COP(=O)(O)OC4C(COP(=O)(O)OC2C3O)OC(n2cnc3c(N)ncnc32)C4O)c(=O)[nH]1 (stereo not drawn) [2′,3′-cGAMP, cyclic guanosine-(2′→5′)-monophosphate-adenosine-(3′→5′)-monophosphate, reference compound]
Induction of IFN-β production [1]: 7.4 fold

Molecule: Nc1nc2c(ncn2C2OC3COP(=O)(O)OC4C(COP(=O)(O)OC3C2O)OC(n2cnc3c(=O)[nH]c(N)nc32)C4O)c(=O)[nH]1 (stereo not drawn) [c-diGMP, cyclic di-GMP, reference compound]
Kd [5]: 4.78 ± 1.65 µM
Kd [6]: 3.7 µM
ΔH0 (ITC) [7, 10]: -24600 cal/mol
ΔS0 (ITC) [7, 10]: −56.5 cal/mol/deg
Kd ([7]; read-out: KD (ITC)): 2170 nM
Hill coefficient for STING activation [8]: 2.6
IC50 ([8]; read-out: IC50 for inhibition of the action of 2′,3′-cGAMP): ~800 nM

Molecule: Cc1c(Cl)cccc1Nc1ncccc1C(=O)OCCCCOC(=O)c1cccnc1Nc1cccc(Cl)c1C [Compound 14]
Activity in MST assay [2]: quite active

B1: His-SUMO-TEV-hSTING CTD (domain or fragment, human, UniProt Q86WV6 155-343, looked up)
chain: VAHGLAWSYYIGYLRLILPELQARIRTYNQHYNNLLRGAVSQRLYILLPLDCGVPDNLSMADPNIRFLDKLPQQTGDHAGIKDRVYSNSIYELLENGQRAGTCVLEYATPLQTLFAMSQYSQAGFSREDRLEQAKLFCRTLEDILADAPESQNNCRLIAYQEPADDSSFSLSQEVLRHLRQEEKEEVTV
notes: human STING (stimulator of interferon genes), C-terminal domain, amino acids 155-343, wild type (R232) allele; a TEV site lies between SUMO and STING by the construct's name; Synthetic gene in pET28a; also called SUMO-hSTING CTD; SUMO-hSTING^WT CTD; source: E. coli BL21(DE3), purified (Ni-NTA); not shown: His6, N-terminal, kept; SUMO, N-terminal, kept
binding result [9]: binds

Second part, led by results:

Activity in MST assay [2]: subfemtomolar activity
Effect of enantiomers on protein aggregate size [4]: slightly less potent
Molecule: Cc1c(Cl)cccc1Nc1ncccc1C(=O)OC[C@H](O)CO (single isomer, unassigned) [R-enantiomer, R-clonixeril]
Effect on p-IRF3 [3]: agonistic

Activity in MST assay [2]: an effect at higher concentrations
Effect of enantiomers on protein aggregate size [4]: no effect
Molecule: Cc1c(Cl)cccc1Nc1ncccc1C(=O)OC[C@@H](O)CO (single isomer, unassigned) [S-enantiomer, S-clonixeril]
Effect on p-IRF3 [3]: no effect

KD (Table S1, Thermophoresis) ([2]; +50 nM 23cGAMP): No shift
Molecule: Cc1cccc(Nc2ccccc2C(=O)OCC(O)CO)c1C (stereo not drawn) [MFE, mefenamic acid glycerol ester]
Activity in MST assay [2]: no indication of activity at any concentration below 1 μM
